Results as given in patent US20220378923A1, “BET DEGRADER” (KYOWA KIRIN CO., LTD., priority 2019, published 2022).
Read-outs that look alike come from different tables or passages of the source.

Key:
DCAF16 KO SU-DHL-4 cells = assay: Inhibitory effect on cell viability using SU-DHL-4 DCAF16 knock out (KO) cell line (Test Example 6); format: cell-based, human; conditions: for Activity Attenuation Ratio: (SU-DHL-4 DCAF16 KO IC50)/(SU-DHL-4 WT IC50); for IC50: DCAF16 KO SU-DHL-4 cells, 72 hours, Cell Counting Kit-8, 50% inhibition of cell viability
Method: The human DLBCL cell line SU-DHL-4 was purchased from DSMZ. SU-DHL-4 was passaged using RPMI1640 medium containing 10 vol % FBS. After the Cas9 gene was introduced, the cells were cultured in the above medium containing 0.01 mg/mL blasticidin (InvivoGen, Cat No. ant-bl-1). After introduction of sgRNA, the cells were cultured in the above medium containing 0.0001 mg/mL puromycin dihydrochloride (SIGMA, Cat No. P9020-10 ML). The culture conditions were 37° C. and 5% CO2.
Edit-R Lentiviral hEF1α-Blast-Cas9 Nuclease Particles (Cat No. VCAS10126) was used as a lentivirus for expressing Cas9 in human cell lines. Three types of Edit-R Human DCAF16 Lentiviral sgRNA (Cat No. VSGH10142-246568260; DNA target sequence […] (SEQ ID NO: 1), Cat No. VSGH10142-246568262; DNA target sequence […] (SEQ ID NO: 2) and Cat No. VSGH10142-246568263; DNA target sequence […] (SEQ ID NO: 3)) were used as lentiviruses for introducing DCAF16 sgRNA. As a control, Edit-R Lentiviral sgRNA Non-targeting Control #1 (Cat No. VSGC10215) was used. All lentiviruses were purchased from Dharmacon and stored at −80° C. until use.
SU-DHL-4 was suspended at 4×10^5 cells/mL in RPMI 1640 without FBS, 0.25 mL of the suspension was added to a 24-well plate, and the cells were cultured overnight. The next day, 0.003 mL of virus particles of Edit-R Lentiviral hEF1α-Blast-Cas9 Nuclease Particles was added. After culturing in a CO2 incubator for 4 hours, RPMI 1640 containing 0.75 mL of 10 vol % FBS was added. After culturing in a CO2 incubator for about 48 hours, the medium was replaced with RPMI1640 containing 10 vol % FBS, and the cells were cultured in a CO2 incubator. Four days after infection, the medium was replaced with a medium containing 0.01 mg/mL blasticidin (InvivoGen, Cat No. ant-bl-1). Then, the cells were passaged once every 2 to 3 days and thus twice in total (that is, cultured for 1 week) to obtain SU-DHL-4/Cas9, which is a Cas9-introduced SU-DHL-4 cell line.
(6) sgRNA infection SU-DHL-4/Cas9 was suspended at 4×10^5 cells/mL in RPMI 1640 without FBS, 0.25 mL of the suspension was added to a 24-well plate, and the cells were cultured overnight. The next day, a total of 4 types of sgRNA virus particles, 1 type of Control and 3 types targeting DCAF16 were added to the respective wells by 0.03 mL. After culturing in a CO2 incubator for 5 hours, RPMI 1640 containing 0.75 mL of 10 vol % FBS was added.
After culturing in a CO2 incubator for about 48 hours, the medium was replaced with RPMI1640 containing 10 vol % FBS, and the cells were cultured in a CO2 incubator. Four days after infection, the medium was replaced with a medium supplemented with 0.01 mg/mL puromycin dihydrochloride (SIGMA, Cat No. P9020-10 ML). Then, the cells were passaged once or twice a week for 2 weeks, and a cell stock was prepared using CELLBANKER I plus (Takara Bio, Cat No. CB-021). Cell line stock was stored at −80° C. Using Edit-R Lentiviral sgRNA Non-targeting Control #1, the Negative Control sequence was introduced into the SU-DHL-4 cell line, which was referred to as SU-DHL-4 NC strain, and using Edit-R Human DCAF16 Lentiviral sgRNA, […] sequence (SEQ ID NO: 1) was introduced into the SU-DHL-4 cell line, which was referred to as SU-DHL-4 DCAF16 KO1 strain, […] sequence (SEQ ID NO: 2) was introduced into the SU-DHL-4 cell line, which was referred to as SU-DHL-4 DCAF16 KO2 strain, and […] sequence (SEQ ID NO: 3) was introduced into the SU-DHL-4 cell line, which was referred to as SU-DHL-4 DCAF16 KO 3 strain.
The cultured DCAF16 KO SU-DHL-4 cells were seeded at 2000 cells/well in a transparent 384-well plate (Code No. 781182, Greiner bio-one). After seeding, the cells were pre-cultured at 37° C. in a carbon dioxide gas incubator for 18 to 25 hours. […]

SU-DHL-4 cells = assay: Inhibitory effect on cell viability in SU-DHL-4 cell line (Test Example 1); format: cell-based, human; conditions: 72 hours; for IC50: SU-DHL-4 (wild type) cells, calculated using the measurement results of test example 1, read-out: SU-DHL-4 WT IC50; for IC90: SU-DHL-4 cells, Cell Counting Kit-8, concentration showing 90% inhibition of cell viability, read-out: SU-DHL-4 Cell Viability Inhibition Rate IC90
Outline: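 SU-DHL-4 cells were grown at 37° C. under 5% CO2 in RPMI1640 with 10 vol % heat-inactivated FBS plus penicillin/streptomycin, seeded and precultured for 18 to 25 hours, then exposed to test compound at 0.1 vol % DMSO for 72 hours. Viability was read with Cell Counting Kit-8 by absorbance at 450 nm.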

| SMILES | IC50 (DCAF16 KO SU-DHL-4 cells; Homo sapiens) | IC50 (SU-DHL-4 cells; Homo sapiens) | IC90 (SU-DHL-4 cells; Homo sapiens) | Activity Attenuation Ratio (DCAF16 KO SU-DHL-4 cells) | IC50 (DCAF16 KO SU-DHL-4 cells) | IC50 (SU-DHL-4 cells) | IC90 (SU-DHL-4 cells) |
| --- | --- | --- | --- | --- | --- | --- | --- |
| CCC(=O)N1c2ccccc2[C@H](N[C@H]2CC[C@H](NC(=O)C#CCNC(=O)[C@H]3CC[C@H](N[C@@H]4C[C@H](C)N(C(=O)CC)c5ccccc54)CC3)CC2)C[C@@H]1C (relative stereo) [Compound 9d, (1R,4R)-4-(((2S*,4R*)-2-Methyl-1-propionyl-1,2,3,4-tetrahydroquinolin-4-yl)amino)-N-(4-(((1R,4R)-4-(((2S,4R)-2-methyl-1-propionyl-1,2,3,4-tetrahydroquinolin-4-yl)amino)cyclohexyl)amino)-4-oxobut-2-yn-1-yl)cyclohexane-1-carboxamide] | – | – | – | 348 | 263 nM | 0.75 nM | 0.93 nM |
| CCC(=O)N1c2ccccc2[C@H](Nc2ccc(-n3cc(CNC(=O)N4CCC(N[C@@H]5C[C@H](C)N(C(=O)CC)c6ccccc65)CC4)nn3)cc2)C[C@@H]1C (relative stereo) [Compound 10b, 4-(((2S*,4R*)-2-Methyl-1-propionyl-1,2,3,4-tetrahydroquinolin-4-yl)amino)-N-((1-(4-(((2S,4R)-2-methyl-1-propionyl-1,2,3,4-tetrahydroquinolin-4-yl)amino)phenyl)-1H-1,2,3-triazol-4-yl)methyl)piperidine-1-carboxamide] | 180 nM | 0.34 nM | – | 524 | – | – | – |
| CCC(=O)N1c2ccccc2[C@H](NCc2ccc(C(=O)N3CC(C(=O)Nc4ccc(N[C@@H]5C[C@H](C)N(C(=O)CC)c6ccccc65)cc4)C3)cc2)C[C@@H]1C (relative stereo) [Compound 10g, 1-(4-((((2S*,4R*)-2-Methyl-1-propionyl-1,2,3,4-tetrahydroquinolin-4-yl)amino)methyl)benzoyl)-N-(4-(((2S,4R)-2-methyl-1-propionyl-1,2,3,4-tetrahydroquinolin-4-yl)amino)phenyl)azetidine-3-carboxamide] | 142 nM | 0.91 nM | – | 154 | – | – | – |
| CCC(=O)N1c2ccccc2[C@H](NCCCCC(=O)NCc2cn(-c3ccc(N[C@@H]4C[C@H](C)N(C(=O)CC)c5ccccc54)cc3)nn2)C[C@@H]1C (relative stereo) [Compound 12f, 5-(((2S*,4R*)-2-Methyl-1-propionyl-1,2,3,4-tetrahydroquinolin-4-yl)amino)-N-((1-(4-(((2S,4R)-2-methyl-1-propionyl-1,2,3,4-tetrahydroquinolin-4-yl)amino)phenyl)-1H-1,2,3-triazol-4-yl)methyl)pentane amide] | – | – | – | >40284 | > 10000 nM | 0.24 nM | 0.42 nM |
| CCC(=O)N1c2ccccc2[C@H](NCCCCCCCC(=O)Nc2ccc(N[C@@H]3C[C@H](C)N(C(=O)CC)c4ccccc43)cc2)C[C@@H]1C (relative stereo) [Compound 12h, 8-(((2S*,4R*)-2-Methyl-1-propionyl-1,2,3,4-tetrahydroquinolin-4-yl)amino)-N-(4-(((2S,4R)-2-methyl-1-propionyl-1,2,3,4-tetrahydroquinolin-4-yl)amino)phenyl)octanamide] | 595 nM | 3.11 nM | – | 191 | – | – | – |
| CCC(=O)N1c2ccccc2[C@H](NCC23CCC(C(=O)N4CC(C(=O)Nc5ccc(N[C@@H]6C[C@H](C)N(C(=O)CC)c7ccccc76)cc5)C4)(CC2)CC3)C[C@@H]1C (relative stereo) [Compound 17o, 1-(4-((((2S,4R)-2-Methyl-1-propionyl-1,2,3,4-tetrahydroquinolin-4-yl)amino)methyl)bicyclo[2.2.2]octane-1-carbonyl)-N-(4-(((2S*,4R*)-2-methyl-1-propionyl-1,2,3,4-tetrahydroquinolin-4-yl)amino)phenyl)azetidine-3-carboxamide] | 522 nM | 0.78 nM | 2.18 nM | 670 | – | – | – |
| CCC(=O)N1c2ccccc2[C@H](Nc2ccc(C(=O)N3CC4CC3CN4C(=O)c3ccc(N[C@@H]4C[C@H](C)N(C(=O)CC)c5ccccc54)cc3)cc2)C[C@@H]1C [Compound 1k, 1,1′-{(2S,2'S,4R,4′R)-{[(2,5-Diazabicyclo[2.2.1]heptane-2,5-dicarbonyl)bis(4,1-phenylene)]bis(azanediyl)}bis[2-methyl-3,4-dihydroquinoline-4,1(2H)-diyl]}bis(propan-1-one)] | 7.42 nM | 0.22 nM | – | 34 | – | – | – |

Further lines, with some results ahead:

| IC50 (DCAF16 KO SU-DHL-4 cells; Homo sapiens) | IC50 (SU-DHL-4 cells; Homo sapiens) | IC90 (SU-DHL-4 cells; Homo sapiens) | SMILES | Activity Attenuation Ratio (DCAF16 KO SU-DHL-4 cells) | IC50 (DCAF16 KO SU-DHL-4 cells) | IC50 (SU-DHL-4 cells) | IC90 (SU-DHL-4 cells) |
| --- | --- | --- | --- | --- | --- | --- | --- |
| 36.7 nM | 0.65 nM | – | Cc1sc2c(c1C)C(c1ccc(C(=O)NCCCNC(=O)c3ccc(C4=N[C@@H](CC(=O)OC(C)(C)C)c5nnc(C)n5-c5sc(C)c(C)c54)cc3)cc1)=N[C@@H](CC(=O)OC(C)(C)C)c1nnc(C)n1-2 [Compound 1b, Di-tert-butyl 2,2′-[(6S,6′S)-({[propane-1,3-diylbis(azanediyl)]bis(carbonyl)}bis(4,1-phenylene))bis(2,3,9-trimethyl-6H-thieno[3,2-f][1,2,4]triazolo[4,3-a][1,4]diazepine-4,6-diyl)]diacetate] | 56 | – | – | – |
| 101 nM | 0.03 nM | – | CCC(=O)N1c2ccccc2[C@H](Nc2ccc(C(=O)NCC(=O)CNC(=O)c3ccc(N[C@@H]4C[C@H](C)N(C(=O)CC)c5ccccc54)cc3)cc2)C[C@@H]1C [Compound 1l, N,N′-(2-Oxopropane-1,3-diyl)bis(4-{[(2S,4R)-2-methyl-1-propionyl-1,2,3,4-tetrahydroquinolin-4-yl]amino}benzamide)] | 3357 | – | – | – |
| 6.58 nM | 0.025 nM | – | CCC(=O)N1c2ccccc2[C@H](Nc2ccc(C(=O)NCc3cn(-c4ccc(N[C@@H]5C[C@H](C)N(C(=O)CC)c6ccccc65)cc4)nn3)cc2)C[C@@H]1C [Compound 3a, 4-{[(2S,4R)-2-Methyl-1-propionyl-1,2,3,4-tetrahydroquinolin-4-yl]amino}-N-{[1-(4-{[(2S,4R)-2-methyl-1-propionyl-1,2,3,4-tetrahydroquinolin-4-yl]amino}phenyl)-1H-1,2,3-triazol-4-yl]methyl}benzamide] | 263 | – | – | – |
